Assay results as given in patent US20230279025A1, “KRAS G12D INHIBITORS” (Mirati Therapeutics, Inc., priority 2020, published 2023).

Key:
KRas G12D [1] = target: T1, KRas G12D (Homo sapiens (Human), UniProt P01116, G12D); experiment: KRas G12D Surface Plasmon Resonance (SPR) Binding Assay; settings: Biacore T200, immobilized biotinylated KRAS protein, 1:1 binding model
Target sequence in this assay (P01116-2 other isoform, or with tags, fused parts or gaps G12D): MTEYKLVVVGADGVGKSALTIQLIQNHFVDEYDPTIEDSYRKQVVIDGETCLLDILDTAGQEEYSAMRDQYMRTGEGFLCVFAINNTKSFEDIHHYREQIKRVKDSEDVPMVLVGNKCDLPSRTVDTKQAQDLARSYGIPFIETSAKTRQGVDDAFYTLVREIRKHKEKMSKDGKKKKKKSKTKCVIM

KRas G12D [2] = target: T1, KRas G12D; experiment: KRas G12D Binding Assay (TR-FRET displacement of Cy5 labelled tracer); settings: GDP-loaded KRAS G12D (amino acids 1:169), 60 minute incubation at 22° C.
Protocol: After a 60 minute incubation at 22° C., the reaction was measured using a PerkinElmer EnVision multimode plate reader via TR-FRET dual wavelength detection, and the percent of control (POC) calculated using a ratiometric emission factor. […] The POC values were fit to a 4-parameter logistic curve and the IC50 value was determined as the concentration where the curve crosses 50 POC.
ND stands for “not determined.”
Target sequence in this assay (P01116 other isoform, or with tags, fused parts or gaps G12D): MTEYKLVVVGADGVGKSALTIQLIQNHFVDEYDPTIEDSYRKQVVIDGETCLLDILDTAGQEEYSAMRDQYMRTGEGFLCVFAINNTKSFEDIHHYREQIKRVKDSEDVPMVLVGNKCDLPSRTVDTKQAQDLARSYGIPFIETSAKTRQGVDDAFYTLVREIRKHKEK

| Compound | Kd (KRas G12D [1]) | IC50 (KRas G12D [2]) |
| --- | --- | --- |
| COc1ccc(CCOc2nc(N3C[C@H]4CC[C@@H](C3)N4)c3cnc(-c4cccc5cccc(Cl)c45)c(F)c3n2)cn1 [Example 86, 4-((1R,5S)-3,8-diazabicyclo[3.2.1]octan-3-yl)-7-(8-chloronaphthalen-1-yl)-8-fluoro-2-(2-(6-methoxypyridin-3-yl)ethoxy)pyrido[4,3-d]pyrimidine] | 528 µM | 7.92 µM |
| COCCN1CCC(Oc2nc(N3C[C@H]4CC[C@@H](C3)N4)c3cnc(-c4cccc5ccccc45)c(F)c3n2)CC1 [Example 39, 4-((1R,5S)-3,8-diazabicyclo[3.2.1]octan-3-yl)-8-fluoro-2-((1-(2-methoxyethyl)piperidin-4-yl)oxy)-7-(naphthalen-1-yl)pyrido[4,3-d]pyrimidine] | 67.8 µM | > 10 µM |
| CN1CCC[C@H]1COc1nc(N2C[C@H]3CC[C@@H](C2)N3)c2cnc(-c3cccc4c3CCCC4)c(F)c2n1 [Example 21, 4-((1R,5S)-3,8-diazabicyclo[3.2.1]octan-3-yl)-8-fluoro-2-(((S)-1-methylpyrrolidin-2-yl)methoxy)-7-(5,6,7,8-tetrahydronaphthalen-1-yl)pyrido[4,3-d]pyrimidine] | 0.448 µM | 0.263 µM |
| CN1CCC[C@H]1COc1nc(N2C[C@H]3CC[C@@H](C2)N3)c2cnc(-c3cccc4cccc(Cl)c34)c(F)c2n1 [Example 132, 4-((1R,5S)-3,8-diazabicyclo[3.2.1]octan-3-yl)-7-(8-chloronaphthalen-1-yl)-8-fluoro-2-(((S)-1-methylpyrrolidin-2-yl)methoxy)pyrido[4,3-d]pyrimidine] | 0.0647 µM | 0.0605 µM |
| Cc1cccc(CCOc2nc(N3C[C@H]4CC[C@@H](C3)N4)c3cnc(-c4cc(O)cc5ccccc45)c(F)c3n2)n1 [Example 87, 4-(4-((1R,5S)-3,8-diazabicyclo[3.2.1]octan-3-yl)-8-fluoro-2-(2-(6-methylpyridin-2-yl)ethoxy)pyrido[4,3-d]pyrimidin-7-yl)naphthalen-2-ol] | 0.196 µM | 0.536 µM |
| Cc1cccc2cccc(-c3ncc4c(N5C[C@H]6CC[C@@H](C5)N6)nc(OCCc5cccnc5)nc4c3F)c12 [Example 101, 4-((1R,5S)-3,8-diazabicyclo[3.2.1]octan-3-yl)-8-fluoro-7-(8-methylnaphthalen-1-yl)-2-(2-(pyridin-3-yl)ethoxy)pyrido[4,3-d]pyrimidine] | 12 µM | 8.08 µM |
| Fc1c(-c2cccc3cccc(Cl)c23)ncc2c(N3C[C@H]4CC[C@@H](C3)N4)nc(OCCc3cccnc3)nc12 [Example 113, 4-((1R,5S)-3,8-diazabicyclo[3.2.1]octan-3-yl)-7-(8-chloronaphthalen-1-yl)-8-fluoro-2-(2-(pyridin-3-yl)ethoxy)pyrido[4,3-d]pyrimidine] | 2.5 µM | 2.87 µM |
| Oc1cc(-c2ncc3c(N4C[C@H]5CC[C@@H](C4)N5)nc(OCCC(F)(F)F)nc3c2F)c2ccccc2c1 [Example 81, 4-(4-((1R,5S)-3,8-diazabicyclo[3.2.1]octan-3-yl)-8-fluoro-2-(3,3,3-trifluoropropoxy)pyrido[4,3-d]pyrimidin-7-yl)naphthalen-2-ol] | 0.321 µM | 0.153 µM |
| OC[C@@H](O)COc1nc(N2C[C@H]3CC[C@@H](C2)N3)c2cnc(-c3cccc4cccc(Cl)c34)c(F)c2n1 [Example 56, (R)-3-((4-((1R,5S)-3,8-diazabicyclo[3.2.1]octan-3-yl)-7-(8-chloronaphthalen-1-yl)-8-fluoropyrido[4,3-d]pyrimidin-2-yl)oxy)propane-1,2-diol] | 5.17 µM | 5.92 µM |
| Cn1ccnc1CCOc1nc(N2C[C@H]3C[C@@H](O)[C@@H](C2)N3)c2cnc(-c3cccc4cccc(Cl)c34)c(F)c2n1 [Example 173, (1R,5R,6R)-3-(7-(8-chloronaphthalen-1-yl)-8-fluoro-2-(2-(1-methyl-1H-imidazol-2-yl)ethoxy)pyrido[4,3-d]pyrimidin-4-yl)-3,8-diazabicyclo[3.2.1]octan-6-ol] | 0.117 µM | 0.0992 µM |
| OC[C@@H]1CCN1c1nc(N2C[C@H]3CC[C@@H](C2)N3)c2cnc(-c3cc(O)cc4ccccc34)c(F)c2n1 [Example 121, 4-(4-((1R,5S)-3,8-diazabicyclo[3.2.1]octan-3-yl)-8-fluoro-2-((S)-2-(hydroxymethyl)azetidin-1-yl)pyrido[4,3-d]pyrimidin-7-yl)naphthalen-2-ol 2,2,2-trifluoroacetate] | 0.197 µM | 0.204 µM |
| CN1CCC[C@H]1COc1nc(N2C[C@H]3CC[C@@H](C2)N3)c2cnc(-c3cc(O)c(Br)c4ccccc34)c(F)c2n1 [Example 14, 4-(4-((1R,5S)-3,8-diazabicyclo[3.2.1]octan-3-yl)-8-fluoro-2-(((S)-1-methylpyrrolidin-2-yl)methoxy)pyrido[4,3-d]pyrimidin-7-yl)-1-bromonaphthalen-2-ol] | 0.0051 µM | 0.0739 µM |
| Fc1c(-c2cncc3cccc(Cl)c23)ncc2c(N3C[C@H]4CC[C@@H](C3)N4)nc(OCC34CCCN3CCC4)nc12 [Example 33, 4-((1R,5S)-3,8-diazabicyclo[3.2.1]octan-3-yl)-7-(5-chloroisoquinolin-4-yl)-8-fluoro-2-((tetrahydro-1H-pyrrolizin-7a(5H)-yl)methoxy)pyrido[4,3-d]pyrimidine bis(2,2,2-trifluoroacetate)] | 0.0717 µM | 0.0211 µM |
| CN1CCC[C@H]1COc1nc(N2CC3CCC(CCC#N)(C2)N3)c2cnc(-c3cc(O)cc4ccccc34)c(F)c2n1 (stereo partly drawn) [Example 157, 3-(3-(8-fluoro-7-(3-hydroxynaphthalen-1-yl)-2-(((S)-1-methylpyrrolidin-2-yl)methoxy)pyrido[4,3-d]pyrimidin-4-yl)-3,8-diazabicyclo[3.2.1]octan-1-yl)propanenitrile bis(2,2,2-trifluoroacetate)] | 0.0229 µM | 0.0266 µM |
| Oc1cc(-c2ncc3c(N4C[C@H]5CC[C@@H](C4)N5)nc(N4CC5(CCOCC5)C4)nc3c2F)c2ccccc2c1 [Example 74, 4-(4-((1R,5S)-3,8-diazabicyclo[3.2.1]octan-3-yl)-8-fluoro-2-(7-oxa-2-azaspiro[3.5]nonan-2-yl)pyrido[4,3-d]pyrimidin-7-yl)naphthalen-2-ol] | 0.141 µM | 0.188 µM |
| Oc1cc(-c2ncc3c(N4C[C@H]5CC[C@@H](C4)N5)nc(OC4CCSCC4)nc3c2F)c2ccccc2c1 [Example 79, 4-(4-((1R,5S)-3,8-diazabicyclo[3.2.1]octan-3-yl)-8-fluoro-2-((tetrahydro-2H-thiopyran-4-yl)oxy)pyrido[4,3-d]pyrimidin-7-yl)naphthalen-2-ol] | > 1000 µM | 0.337 µM |
| CN1CCC[C@H]1COc1nc(N2C[C@H]3CC[C@@H](C2)N3)c2cnc(-c3cccc4cccc(Cl)c34)cc2n1 [Example 123, 4-((1R,5S)-3,8-diazabicyclo[3.2.1]octan-3-yl)-7-(8-chloronaphthalen-1-yl)-2-(((S)-1-methylpyrrolidin-2-yl)methoxy)pyrido[4,3-d]pyrimidine] | 0.786 µM | 0.754 µM |
| CN(C)CCOc1nc(N2C[C@H]3CC[C@@H](C2)N3)c2cnc(-c3cccc4cccc(Cl)c34)c(F)c2n1 [Example 107, 2-((4-((I R,5S)-3,8-diazabicyclo[3.2.1]octan-3-yl)-7-(8-chloronaphthalen-1-yl)-8-fluoropyrido[4,3-d]pyrimidin-2-yl)oxy)-N,N-dimethylethan-1-amine] | 1.44 µM | 2.12 µM |
| Oc1cc(-c2ncc3c(N4C[C@H]5CC[C@@H](C4)N5)nc(OCC4CCCC4)nc3c2F)c2ccccc2c1 [Example 73, 4-(4-((1R,5S)-3,8-diazabicyclo[3.2.1]octan-3-yl)-2-(cyclopentylmethoxy)-8-fluoropyrido[4,3-d]pyrimidin-7-yl)naphthalen-2-ol] | 667 µM | 0.573 µM |
| COCCCN1CCC(Oc2nc(N3C[C@H]4CC[C@@H](C3)N4)c3cnc(-c4cc(O)cc5ccccc45)c(F)c3n2)CC1 [Example 41, 4-(4-((1R,5S)-3,8-diazabicyclo[3.2.1]octan-3-yl)-8-fluoro-2-((1-(3-methoxypropyl)piperidin-4-yl)oxy)pyrido[4,3-d]pyrimidin-7-yl)naphthalen-2-ol] | 0.181 µM | 0.0767 µM |
| Oc1cc(-c2ncc3c(N4C[C@H]5CC[C@@H](C4)N5)nc(OCCc4ccccn4)nc3c2F)c2ccccc2c1 [Example 4, 4-(4-((1R,5S)-3,8-diazabicyclo[3.2.1]octan-3-yl)-8-fluoro-2-(2-(pyridin-2-yl)ethoxy)pyrido[4,3-d]pyrimidin-7-yl)naphthalen-2-ol] | 0.156 µM | 0.496 µM |
| Fc1c(-c2cccc3cccc(Cl)c23)ncc2c(N3C[C@H]4CC[C@@H](C3)N4)nc(OCCc3cn4ccccc4n3)nc12 [Example 92, 4-((1R,5S)-3,8-diazabicyclo[3.2.1]octan-3-yl)-7-(8-chloronaphthalen-1-yl)-8-fluoro-2-(2-(imidazo[1,2-a]pyridin-2-yl)ethoxy)pyrido[4,3-d]pyrimidine] | 2.3 µM | 1.35 µM |
| Cn1cncc1CCOc1nc(N2C[C@H]3CC[C@@H](C2)N3)c2cnc(-c3cc(O)cc4ccccc34)c(F)c2n1 [Example 110, 4-(4-((1R,5S)-3,8-diazabicyclo[3.2.1]octan-3-yl)-8-fluoro-2-(2-(1-methyl-1H-imidazol-5-yl)ethoxy)pyrido[4,3-d]pyrimidin-7-yl)naphthalen-2-ol] | 0.0423 µM | 0.0575 µM |
| CO[C@@H]1C[C@@H](COc2nc(N3C[C@H]4CC[C@@H](C3)N4)c3cnc(-c4cccc5cccc(Cl)c45)c(F)c3n2)N(C)C1 [Example 34, 4-((1R,5S)-3,8-diazabicyclo[3.2.1]octan-3-yl)-7-(8-chloronaphthalen-1-yl)-8-fluoro-2-(((2S,4R)-4-methoxy-1-methylpyrrolidin-2-yl)methoxy)pyrido[4,3-d]pyrimidine] | 0.119 µM | 0.135 µM |
